Results reported in patent US20220265629A1, “TREATMENT OF SYSTOLIC DYSFUNCTION AND HEART FAILURE WITH REDUCED EJECTION FRACTION WITH THE COMPOUND (R)-4-(1-((3-(DIFLUOROMETHYL)-1-METHYL-1H-PYRAZOL-4-YL)SULFONYL)-1-FLUOROETHYL)-N-(ISOXAZOL-3-YL)PIPERIDINE-1-CARBOXAMIDE” (MyoKardia, Inc., priority 2019, published 2022).
Read-outs that look alike come from different tables or passages of the source.

Assay: Food effect cross-over study, 200 mg (25 mg tablets), healthy volunteers: plasma pharmacokinetics
Type: in vivo, human
Settings: for Plasma concentration, Geometric Mean / Plasma concentration, Mean / Plasma concentration, Median: Predose; for concentration at 1 h / concentration at 2 h / concentration at 3 h / concentration at 4 h / concentration at 5 h / concentration at 6 h / concentration at 9 h / concentration at 12 h / concentration at 18 h / concentration at 24 h / concentration at 36 h: human, plasma, oral; for concentration at 1 h: 1 hour postdose; for concentration at 2 h: 2 hours postdose; for concentration at 3 h: 3 hours postdose; for concentration at 4 h: 4 hours postdose; for concentration at 5 h: 5 hours postdose; for concentration at 6 h: 6 hours postdose; for concentration at 9 h: 9 hours postdose; for concentration at 12 h: 12 hours postdose; for concentration at 18 h: 18 hours postdose; for concentration at 24 h: 24 hours postdose; for concentration at 36 h: 36 hours postdose
Source text: This example describes a clinical study for establishing, in healthy volunteers, the effect of a high fat, high caloric meal on the PK profile of Compound I, as compared to administration of the drug in the fasted state. The study also was intended to determine the safety and tolerability after a single oral dose of Compound I in the fed and fasted state in healthy volunteers. The measurements of PK, PD, and other clinical parameters were done as described in Example 1 above.
This study was an open-label, randomized, two-period cross-over study in healthy volunteers aged 18-55 years. Subjects were screened up to 28 days before the first treatment period. Subjects were admitted to the clinical site on Day −1 (the day before dosing) of Period 1. Approximately half of the subjects randomly received a single dose of Compound I on Day 1 of the first treatment period after the ingestion of a high fat, high caloric breakfast, and the remainder were closed in the fasted state. Any subject with a preclose resting HR≥95 beats per minute (bpm) was considered ineligible and was not treated. Any subjects with an acute gastrointestinal disorder which could impact drug/food absorption (e.g., vomiting, diarrhea) were rescheduled. Subjects were confined to the clinic until Day 4, and discharged after the 72-hour postclose PK and laboratory samples and vital signs were obtained. After a washout between dosing from 7 to 10 days (or, after consultation with the Investigator, up to 21 days after initial dosing if the subject was unable to attend within the 7 to 10-day window), the subject was admitted for Period 2. The sequence of fed/fasted versus fasted/fed periods was randomized. Subjects returned after the second treatment period for a safety follow-up visit on Day 7 (±1 day).
In both treatment periods, Compound I was administered with 240 mL of water. In the fasted state, the subjects fasted for 10 hours before and for 4 hours after the administration of Compound I. Water could have been ingested up to 1 hour before and after 1 hour post dosing. In the fed state, the subjects fasted for 10 hours before and for 4 hours after the ingestion of the meal, but could have ingested water up to 1 hour before and 1 hour after dosing. In the fed state, the subjects started ingesting the high fat, high caloric meal within 30 minutes prior to Compound I administration and finished the meal within 30 minutes. The meal contained approximately 800 to 1000 calories with about 50% of the calories from fat. The meal consisted of approximately 150 calories from protein, 250 calories from carbohydrate, and 500-600 calories from fat. An example of the meal was a breakfast consisting of two eggs fried in butter, two strips of bacon, two slices of buttered toast, 4 ounces of hash brown potatoes, and 8 ounces of whole milk.
Each subject received two oral doses of 200 mg of Compound I formulated as 25 mg tablets (8 tablets) in a randomized, cross-over fashion, once in the fasted state and the other time after the ingestion of a high fat, high caloric breakfast. There was a washout of between 7 and 21 days between the administrations of the two closes. The Compound I drug substance was a crystalline, free-base, synthetic molecule with a molecular weight of 435.4.
Plasma drug concentrations were measured as described in Example 1 above. Blood samples to measure Compound I plasma concentration were collected at various time points, including on Day 1 preclose (1 hour prior to dosing) and at 1 (±5 min), 2 (±5 min), 3 (±5 min), 4 (+10 min), 5 (+10 min), 6 (+10 min), 9 (+20 min), 12 (+20 min), 18 (+30 min), 24 (+30 min), 36 (+30 min), 48 (+30 min), and 72 (+30 min) hours postclose on both treatment periods.
To assess the effect of food on the PK of Compound I, the two one-sided t-test procedure was used to construct 90% CI around the geometric mean ratios (fed/fasted) of plasma AUCinf, AUClast, and Cmax. […]

[1] = Fasted, read-out: Plasma concentration, Geometric Mean
[2] = Fasted, read-out: Plasma concentration, Mean
[3] = Fasted, read-out: Plasma concentration, Median
[4] = Fed, read-out: Plasma concentration, Geometric Mean
[5] = Fed, read-out: Plasma concentration, Mean
[6] = Fed, read-out: Plasma concentration, Median

Cn1cc(S(=O)(=O)[C@@](C)(F)C2CCN(C(=O)Nc3ccon3)CC2)c(C(F)F)n1 [Compound I, (R)-4-(1-((3-(difluoromethyl)-1-methyl-1H-pyrazol-4-yl)sulfonyl)-1-fluoroethyl)-N-(isoxazol-3-yl)piperidine-1-carboxamide]
exposure (Cmax) higher in the fed state versus the fasted state: ~60%
AUCinf, Geometric Mean Ratio - Fed/Fasted (N = 11): 154.28 % of Reference
AUClast, Geometric Mean Ratio - Fed/Fasted (N = 11): 154.02 % of Reference
Cmax, Geometric Mean Ratio - Fed/Fasted (N = 11): 158.11 % of Reference
Plasma concentration, Geometric Mean (Fasted): 0.000 ng/mL
Plasma concentration, Mean (Fasted): 0.000 ng/mL
Plasma concentration, Median (Fasted): 0.000 ng/mL
Plasma concentration, Geometric Mean (Fed): 0.000 ng/mL
Plasma concentration, Mean (Fed): 0.092 ng/mL
Plasma concentration, Median (Fed): 0.000 ng/mL
Tmax, Median (range) (fasted state): 5 h
Tmax, Median (range) (fed state): 5.5 h
concentration at 1 h [1]: 1180 ng/mL
concentration at 1 h [2]: 1360 ng/mL
concentration at 1 h [3]: 1600 ng/mL
concentration at 1 h [4]: 916 ng/mL
concentration at 1 h [5]: 1320 ng/mL
concentration at 1 h [6]: 828 ng/mL
concentration at 2 h [1]: 1780 ng/mL
concentration at 2 h [2]: 1830 ng/mL
concentration at 2 h [3]: 1820 ng/mL
concentration at 2 h [4]: 1470 ng/mL
concentration at 2 h [5]: 1920 ng/mL
concentration at 2 h [6]: 1160 ng/mL
concentration at 3 h [1]: 2090 ng/mL
concentration at 3 h [2]: 2120 ng/mL
concentration at 3 h [3]: 2180 ng/mL
concentration at 3 h [4]: 2000 ng/mL
concentration at 3 h [5]: 2340 ng/mL
concentration at 3 h [6]: 2340 ng/mL
concentration at 4 h [1]: 2190 ng/mL
concentration at 4 h [2]: 2220 ng/mL
concentration at 4 h [3]: 2280 ng/mL
concentration at 4 h [4]: 2610 ng/mL
concentration at 4 h [5]: 2810 ng/mL
concentration at 4 h [6]: 3030 ng/mL
concentration at 5 h [1]: 2270 ng/mL
concentration at 5 h [2]: 2310 ng/mL
concentration at 5 h [3]: 2400 ng/mL
concentration at 5 h [4]: 3040 ng/mL
concentration at 5 h [5]: 3150 ng/mL
concentration at 5 h [6]: 3340 ng/mL
concentration at 6 h [1]: 2170 ng/mL
concentration at 6 h [2]: 2220 ng/mL
concentration at 6 h [3]: 2320 ng/mL
concentration at 6 h [4]: 3140 ng/mL
concentration at 6 h [5]: 3200 ng/mL
concentration at 6 h [6]: 3320 ng/mL
concentration at 9 h [1]: 1970 ng/mL
concentration at 9 h [2]: 2000 ng/mL
concentration at 9 h [3]: 2040 ng/mL
concentration at 9 h [4]: 3050 ng/mL
concentration at 9 h [5]: 3080 ng/mL
concentration at 9 h [6]: 3220 ng/mL
concentration at 12 h [1]: 1720 ng/mL
concentration at 12 h [2]: 1740 ng/mL
concentration at 12 h [3]: 1800 ng/mL
concentration at 12 h [4]: 2780 ng/mL
concentration at 12 h [5]: 2840 ng/mL
concentration at 12 h [6]: 2720 ng/mL
concentration at 18 h [1]: 1290 ng/mL
concentration at 18 h [2]: 1320 ng/mL
concentration at 18 h [3]: 1360 ng/mL
concentration at 18 h [4]: 2030 ng/mL
concentration at 18 h [5]: 2080 ng/mL
concentration at 18 h [6]: 2060 ng/mL
concentration at 24 h [1]: 1070 ng/mL
concentration at 24 h [2]: 1100 ng/mL
concentration at 24 h [3]: 1170 ng/mL
concentration at 24 h [4]: 1660 ng/mL
concentration at 24 h [5]: 1720 ng/mL
concentration at 24 h [6]: 1670 ng/mL
concentration at 36 h [1]: 546 ng/mL
concentration at 36 h [2]: 578 ng/mL
concentration at 36 h [3]: 596 ng/mL
